Measurements taken from ChEMBL document CHEMBL3351387, “Bioisosteric replacement of an acylureido moiety attached to an indolin-2-one scaffold with a malonamido or a 2/4-pyridinoylamido moiety produces a selectively potent Aurora-B inhibitor” (Eur J Med Chem, 2014).

Experiments:
HepG2 = assay: Cytotoxicity against human HepG2 cells by SRB assay; format: cell-based
A549 [1] = assay: Cytotoxicity against human A549 cells by SRB assay; format: cell-based
[2] = target: Platelet-derived growth factor receptor beta (Homo sapiens, UniProt P09619); assay: Inhibition of PDGFRbeta (unknown origin) using poly[Glu:Tyr] (4:1) substrate by radioisotope-based P81 filter-binding assay
Platelet-derived growth factor receptor beta, sequence (P09619 whole entry): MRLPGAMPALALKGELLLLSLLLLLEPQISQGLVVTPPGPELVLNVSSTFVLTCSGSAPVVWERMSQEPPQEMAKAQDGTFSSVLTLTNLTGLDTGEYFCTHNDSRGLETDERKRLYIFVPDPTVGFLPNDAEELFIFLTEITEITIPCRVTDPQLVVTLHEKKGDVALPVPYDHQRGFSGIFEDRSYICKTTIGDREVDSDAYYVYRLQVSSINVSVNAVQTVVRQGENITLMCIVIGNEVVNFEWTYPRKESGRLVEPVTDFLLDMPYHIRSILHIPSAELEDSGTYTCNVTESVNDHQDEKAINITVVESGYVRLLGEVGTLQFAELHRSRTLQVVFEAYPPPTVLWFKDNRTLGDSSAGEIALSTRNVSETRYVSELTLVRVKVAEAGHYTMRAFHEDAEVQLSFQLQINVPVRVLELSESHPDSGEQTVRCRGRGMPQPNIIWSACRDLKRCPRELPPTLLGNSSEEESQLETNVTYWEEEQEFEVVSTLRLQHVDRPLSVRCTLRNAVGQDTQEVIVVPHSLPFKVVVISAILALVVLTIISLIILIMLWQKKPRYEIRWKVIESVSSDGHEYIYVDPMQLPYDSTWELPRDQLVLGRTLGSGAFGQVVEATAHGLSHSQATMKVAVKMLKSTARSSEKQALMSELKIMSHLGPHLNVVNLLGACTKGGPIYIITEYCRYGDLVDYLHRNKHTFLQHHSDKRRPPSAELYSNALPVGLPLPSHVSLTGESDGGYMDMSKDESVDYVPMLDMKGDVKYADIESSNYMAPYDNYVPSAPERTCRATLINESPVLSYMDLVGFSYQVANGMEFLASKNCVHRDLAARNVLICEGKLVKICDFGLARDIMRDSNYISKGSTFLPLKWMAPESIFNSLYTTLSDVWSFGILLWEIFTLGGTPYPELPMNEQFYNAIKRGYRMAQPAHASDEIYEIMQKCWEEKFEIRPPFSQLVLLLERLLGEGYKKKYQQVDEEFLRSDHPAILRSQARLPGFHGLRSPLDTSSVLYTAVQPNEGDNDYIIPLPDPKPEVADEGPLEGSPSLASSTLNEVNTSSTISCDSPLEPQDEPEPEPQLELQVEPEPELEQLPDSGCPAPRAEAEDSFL

[3] = target: T1, Receptor-type tyrosine-protein kinase FLT3 (Homo sapiens, UniProt P36888); assay: Inhibition of Flt3 (unknown origin) using EAIYAAPFAKKK substrate by radioisotope-based P81 filter-binding assay
T1 sequence (P36888 whole entry): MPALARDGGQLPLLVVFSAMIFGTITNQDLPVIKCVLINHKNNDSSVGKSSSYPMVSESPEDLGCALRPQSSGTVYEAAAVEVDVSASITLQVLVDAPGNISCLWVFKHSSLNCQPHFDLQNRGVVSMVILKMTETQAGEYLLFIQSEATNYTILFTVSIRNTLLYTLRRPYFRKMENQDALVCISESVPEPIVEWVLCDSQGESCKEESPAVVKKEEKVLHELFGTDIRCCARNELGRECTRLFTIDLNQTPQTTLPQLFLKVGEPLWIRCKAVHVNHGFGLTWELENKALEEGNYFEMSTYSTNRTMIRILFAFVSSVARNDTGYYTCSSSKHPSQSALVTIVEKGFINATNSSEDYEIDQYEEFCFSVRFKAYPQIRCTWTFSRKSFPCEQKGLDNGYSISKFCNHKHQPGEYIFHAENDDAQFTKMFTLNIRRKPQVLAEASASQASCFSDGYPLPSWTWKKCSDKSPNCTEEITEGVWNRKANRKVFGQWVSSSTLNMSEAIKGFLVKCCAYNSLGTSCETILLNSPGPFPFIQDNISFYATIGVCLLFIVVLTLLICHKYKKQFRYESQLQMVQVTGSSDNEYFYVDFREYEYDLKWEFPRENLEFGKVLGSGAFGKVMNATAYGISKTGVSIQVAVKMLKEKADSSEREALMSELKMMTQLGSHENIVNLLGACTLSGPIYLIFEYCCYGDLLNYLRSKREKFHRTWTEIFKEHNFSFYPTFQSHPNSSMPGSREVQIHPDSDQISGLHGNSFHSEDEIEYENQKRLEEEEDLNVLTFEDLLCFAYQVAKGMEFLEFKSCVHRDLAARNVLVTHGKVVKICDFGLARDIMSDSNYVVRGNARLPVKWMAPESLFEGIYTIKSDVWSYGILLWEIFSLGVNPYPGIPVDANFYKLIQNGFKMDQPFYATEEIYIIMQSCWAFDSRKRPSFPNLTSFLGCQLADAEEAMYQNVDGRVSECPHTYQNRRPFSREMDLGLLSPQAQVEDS

A549 [4] = assay: Antimigratory activity against human A549 cells assessed as inhibition of cell migration after 8 to 16 hrs by scratch wound model assay
A549 [5] = assay: Anti-invasive activity against human A549 cells assessed as inhibition of cell invasion by transwell invasion assay
Aurora kinase C = target: T2, Aurora kinase C (Homo sapiens, UniProt Q9UQB9); assay: Inhibition of Aurora C (unknown origin) using H-LRRASLG substrate by radioisotope-based P81 filter-binding assay
T2 sequence (Q9UQB9 whole entry): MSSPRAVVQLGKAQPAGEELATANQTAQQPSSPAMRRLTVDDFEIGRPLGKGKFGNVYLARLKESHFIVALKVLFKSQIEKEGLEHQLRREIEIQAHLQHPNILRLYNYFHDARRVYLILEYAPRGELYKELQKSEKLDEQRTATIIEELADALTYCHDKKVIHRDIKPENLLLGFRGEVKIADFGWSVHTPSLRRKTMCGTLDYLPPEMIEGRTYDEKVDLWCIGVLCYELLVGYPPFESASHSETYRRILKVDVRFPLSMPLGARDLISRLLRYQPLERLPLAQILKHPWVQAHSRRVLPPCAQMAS

Aurora kinase A = target: T3, Aurora kinase A (Homo sapiens, UniProt O14965); assay: Inhibition of Aurora A (unknown origin) using H-LRRASLG substrate by radioisotope-based P81 filter-binding assay
T3 sequence (O14965 whole entry): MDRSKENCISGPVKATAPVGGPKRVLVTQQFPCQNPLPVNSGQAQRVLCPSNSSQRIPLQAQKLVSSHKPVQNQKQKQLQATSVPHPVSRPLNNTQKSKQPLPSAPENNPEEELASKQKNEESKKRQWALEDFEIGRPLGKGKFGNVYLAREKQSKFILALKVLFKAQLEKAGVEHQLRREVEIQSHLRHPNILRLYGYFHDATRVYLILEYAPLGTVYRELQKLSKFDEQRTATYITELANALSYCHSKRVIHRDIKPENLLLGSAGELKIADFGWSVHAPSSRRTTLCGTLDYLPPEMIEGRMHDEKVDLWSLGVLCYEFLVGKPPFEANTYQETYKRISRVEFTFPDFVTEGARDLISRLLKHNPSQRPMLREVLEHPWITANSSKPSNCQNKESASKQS

[6] = target: Vascular endothelial growth factor receptor 2 (Homo sapiens, UniProt P35968); assay: Inhibition of VEGFR2 (unknown origin) using poly[Glu:Tyr] substrate by radioisotope-based P81 filter-binding assay
Vascular endothelial growth factor receptor 2, sequence (P35968 whole entry): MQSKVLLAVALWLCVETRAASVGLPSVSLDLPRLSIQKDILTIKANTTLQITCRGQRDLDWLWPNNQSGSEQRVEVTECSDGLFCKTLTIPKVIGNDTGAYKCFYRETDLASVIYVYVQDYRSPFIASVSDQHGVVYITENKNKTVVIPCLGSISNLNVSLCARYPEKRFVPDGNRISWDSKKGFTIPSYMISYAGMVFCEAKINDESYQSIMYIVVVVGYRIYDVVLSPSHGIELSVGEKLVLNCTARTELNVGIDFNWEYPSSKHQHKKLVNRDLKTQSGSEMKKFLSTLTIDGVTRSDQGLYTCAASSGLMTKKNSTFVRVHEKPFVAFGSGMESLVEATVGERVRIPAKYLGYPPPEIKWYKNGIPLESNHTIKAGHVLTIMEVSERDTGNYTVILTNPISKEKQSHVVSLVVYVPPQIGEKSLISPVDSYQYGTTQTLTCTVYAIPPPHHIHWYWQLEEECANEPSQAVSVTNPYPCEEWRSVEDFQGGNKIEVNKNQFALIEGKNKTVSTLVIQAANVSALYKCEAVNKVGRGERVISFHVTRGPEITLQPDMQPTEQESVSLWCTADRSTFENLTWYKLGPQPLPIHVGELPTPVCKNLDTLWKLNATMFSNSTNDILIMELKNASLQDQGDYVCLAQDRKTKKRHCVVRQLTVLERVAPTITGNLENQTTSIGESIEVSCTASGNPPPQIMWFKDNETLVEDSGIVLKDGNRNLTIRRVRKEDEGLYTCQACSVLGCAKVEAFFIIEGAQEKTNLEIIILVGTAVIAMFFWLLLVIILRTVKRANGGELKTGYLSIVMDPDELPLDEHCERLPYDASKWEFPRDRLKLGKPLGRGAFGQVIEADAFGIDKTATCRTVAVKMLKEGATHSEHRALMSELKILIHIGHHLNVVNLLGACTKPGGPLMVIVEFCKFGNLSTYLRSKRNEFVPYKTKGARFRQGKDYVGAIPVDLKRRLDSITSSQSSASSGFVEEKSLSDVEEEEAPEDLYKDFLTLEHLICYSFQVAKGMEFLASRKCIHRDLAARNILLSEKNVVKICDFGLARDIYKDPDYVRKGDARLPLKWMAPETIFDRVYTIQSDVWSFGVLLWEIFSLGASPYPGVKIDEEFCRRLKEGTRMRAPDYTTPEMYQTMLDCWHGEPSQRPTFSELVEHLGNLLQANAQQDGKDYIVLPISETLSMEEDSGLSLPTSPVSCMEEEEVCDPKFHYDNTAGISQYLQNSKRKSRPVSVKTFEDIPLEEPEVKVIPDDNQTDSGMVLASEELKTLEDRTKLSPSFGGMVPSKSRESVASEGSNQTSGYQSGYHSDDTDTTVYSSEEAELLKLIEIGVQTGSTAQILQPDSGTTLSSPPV

[7] = target: Platelet-derived growth factor receptor alpha (Homo sapiens, UniProt P16234); assay: Inhibition of PDGFRalpha (unknown origin) using poly[Glu:Tyr] (4:1) substrate by radioisotope-based P81 filter-binding assay
Platelet-derived growth factor receptor alpha, sequence (P16234 whole entry): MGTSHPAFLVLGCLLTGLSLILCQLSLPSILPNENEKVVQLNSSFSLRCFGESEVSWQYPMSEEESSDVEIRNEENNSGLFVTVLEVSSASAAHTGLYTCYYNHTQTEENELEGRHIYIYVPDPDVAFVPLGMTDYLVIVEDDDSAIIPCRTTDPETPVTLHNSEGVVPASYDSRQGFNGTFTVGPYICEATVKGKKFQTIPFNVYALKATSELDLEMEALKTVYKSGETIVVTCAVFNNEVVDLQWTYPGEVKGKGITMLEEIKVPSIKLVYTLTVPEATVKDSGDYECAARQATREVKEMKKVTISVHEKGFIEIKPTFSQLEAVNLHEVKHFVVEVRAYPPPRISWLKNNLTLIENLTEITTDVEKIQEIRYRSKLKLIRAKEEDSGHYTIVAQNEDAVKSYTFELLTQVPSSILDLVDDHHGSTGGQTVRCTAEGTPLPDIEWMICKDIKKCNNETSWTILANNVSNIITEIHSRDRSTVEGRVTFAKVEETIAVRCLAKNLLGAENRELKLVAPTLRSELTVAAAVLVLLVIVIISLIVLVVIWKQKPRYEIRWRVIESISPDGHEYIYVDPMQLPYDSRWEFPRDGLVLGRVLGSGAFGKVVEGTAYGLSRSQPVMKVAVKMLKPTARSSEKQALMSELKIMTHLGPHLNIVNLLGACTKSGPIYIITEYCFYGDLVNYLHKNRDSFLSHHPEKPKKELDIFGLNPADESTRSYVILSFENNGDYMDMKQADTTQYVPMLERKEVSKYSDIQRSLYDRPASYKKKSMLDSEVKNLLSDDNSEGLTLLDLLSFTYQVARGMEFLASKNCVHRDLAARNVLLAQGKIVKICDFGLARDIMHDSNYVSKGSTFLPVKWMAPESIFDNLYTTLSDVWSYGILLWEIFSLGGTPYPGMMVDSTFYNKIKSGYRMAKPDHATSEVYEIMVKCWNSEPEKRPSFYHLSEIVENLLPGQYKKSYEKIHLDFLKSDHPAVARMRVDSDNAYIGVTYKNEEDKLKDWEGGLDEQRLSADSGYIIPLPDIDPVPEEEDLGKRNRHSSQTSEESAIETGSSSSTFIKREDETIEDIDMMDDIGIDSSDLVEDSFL

Aurora kinase B = Aurora kinase B (Homo sapiens, UniProt Q96GD4); assay: Inhibition of Aurora B (unknown origin) using H-LRRASLG substrate by radioisotope-based P81 filter-binding assay
Aurora kinase B, sequence (Q96GD4 whole entry): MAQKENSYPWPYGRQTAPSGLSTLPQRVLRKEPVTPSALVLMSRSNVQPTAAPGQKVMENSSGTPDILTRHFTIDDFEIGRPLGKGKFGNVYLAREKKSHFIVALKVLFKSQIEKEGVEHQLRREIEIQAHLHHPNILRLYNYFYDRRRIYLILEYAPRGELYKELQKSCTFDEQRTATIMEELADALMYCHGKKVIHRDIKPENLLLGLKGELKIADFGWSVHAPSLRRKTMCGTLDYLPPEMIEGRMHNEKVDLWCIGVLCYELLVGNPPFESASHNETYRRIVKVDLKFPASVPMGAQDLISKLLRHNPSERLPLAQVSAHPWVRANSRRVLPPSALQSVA

| SMILES | IC50 (HepG2) [µM] | IC50 (A549 [1]) [µM] | further results |
| --- | --- | --- | --- |
| Cc1[nH]c(/C=C2\C(=O)Nc3cc(NC(=O)c4c[nH]cc(-c5ccc(F)cc5)c4=O)ccc32)c(C)c1CC(=O)N1CCN(C)CC1 | 0.7 | 0.6 | – |
| COc1ccc(NC(=O)CC(=O)Nc2ccc3c(c2)NC(=O)/C3=C\c2ccc[nH]2)cc1 | 2.8 | 3.8 | IC50 [2]: 0.177 µM; IC50 [3]: 0.0166 µM |
| O=C1Nc2c(NC(=O)c3cccn(-c4ccc(F)cc4)c3=O)cccc2/C1=C/c1ccc[nH]1 | 3.9 | 4.5 | – |
| COc1ccc(NC(=O)C2(C(=O)Nc3ccc4c(c3)NC(=O)/C4=C\c3ccc[nH]3)CC2)cc1 | 3.9 | 5.9 | – |
| Cc1[nH]c(/C=C2\C(=O)Nc3cc(NC(=O)c4cccn(-c5ccc(F)cc5)c4=O)ccc32)c(C)c1C(=O)O | 6.1 | 6.3 | IC50 (A549 [4]): 7.9 µM; IC50 (A549 [5]): > 10 µM |
| Cc1[nH]c(/C=C2\C(=O)Nc3cc(NC(=O)c4c[nH]cc(-c5ccc(F)cc5)c4=O)ccc32)c(C)c1C(=O)N1CCOCC1 | 6.7 | 5.8 | – |
| Cc1[nH]c(/C=C2\C(=O)Nc3cc(NC(=O)c4cccn(C)c4=O)ccc32)c(C)c1C(=O)O | 8.1 | 6.6 | – |
| Cc1ccc(-n2cccc(C(=O)Nc3ccc4c(c3)NC(=O)/C4=C\c3ccc[nH]3)c2=O)cc1 | 4.2 | 1.6 | – |
| O=C1Nc2cc(NC(=O)c3c[nH]cc(-c4cccc(Cl)c4)c3=O)ccc2/C1=C/c1ccc[nH]1 | 0.6 | 0.5 | – |
| Cc1c[nH]cc(C(=O)Nc2ccc3c(c2)NC(=O)/C3=C\c2ccc[nH]2)c1=O | 3.1 | 5.5 | – |
| COc1ccc(-c2c[nH]cc(C(=O)Nc3ccc4c(c3)NC(=O)/C4=C\c3ccc[nH]3)c2=O)cc1 | 0.8 | 0.6 | – |
| O=C1Nc2cc(NC(=O)c3cccn(-c4cccc(Cl)c4)c3=O)ccc2/C1=C/c1ccc[nH]1 | 4.9 | 1.5 | – |
| O=C1Nc2cc(NC(=O)c3cccn(CCO)c3=O)ccc2/C1=C/c1ccc[nH]1 | 3.9 | 4.5 | – |
| O=C1Nc2cc(NC(=O)c3c[nH]cc(-c4ccc(F)cc4)c3=O)ccc2/C1=C/c1ccc[nH]1 | 1.4 | 0.5 | IC50 (A549 [4]): 6.6 µM; IC50 (A549 [5]): 7.8 µM |
| Cc1ccc(-c2c[nH]cc(C(=O)Nc3ccc4c(c3)NC(=O)/C4=C\c3ccc[nH]3)c2=O)cc1 | 0.7 | 0.5 | – |
| O=C(CC(=O)Nc1ccc2c(c1)NC(=O)/C2=C\c1ccc[nH]1)Nc1ccc(F)cc1 | 1.8 | 0.7 | IC50 (Aurora kinase C): 0.0672 µM; IC50 (Aurora kinase A): 0.552 µM; IC50 [6]: 1.77 µM; IC50 [7]: 0.0072 µM; IC50 [2]: 0.0869 µM; IC50 [3]: 0.011 µM |

| SMILES | IC50 (HepG2) [µM] | IC50 (A549 [1]) [µM] | further results |
| --- | --- | --- | --- |
| Cn1cccc(C(=O)Nc2ccc3c(c2)NC(=O)/C3=C\c2ccc[nH]2)c1=O | 7 | 5.9 | – |
| Cc1[nH]c(/C=C2\C(=O)Nc3cc(NC(=O)c4c[nH]cc(-c5ccc(F)cc5)c4=O)ccc32)c(C)c1C(=O)N1CCN(C)CC1 | 0.7 | 0.6 | – |
| O=C1Nc2cc(NC(=O)c3cccn(-c4ccc(F)cc4)c3=O)ccc2/C1=C/c1ccc[nH]1 | 0.9 | 0.7 | IC50 (A549 [4]): 7.3 µM; IC50 (A549 [5]): > 10 µM |
| O=C1Nc2cc(NC(=O)c3c[nH]cc(-c4ccc(C(F)(F)F)cc4)c3=O)ccc2/C1=C/c1ccc[nH]1 | 0.7 | 0.5 | – |
| COc1ccc(-n2cccc(C(=O)Nc3ccc4c(c3)NC(=O)/C4=C\c3ccc[nH]3)c2=O)cc1 | 5.6 | 3.3 | – |
| O=C1Nc2cc(NC(=O)c3c[nH]cc(-c4ccccc4)c3=O)ccc2/C1=C/c1ccc[nH]1 | 1.1 | 0.5 | IC50 (Aurora kinase B): 0.0331 µM |
| Cc1[nH]c(/C=C2\C(=O)Nc3cc(NC(=O)c4c[nH]cc(-c5ccc(F)cc5)c4=O)ccc32)c(C)c1CC(=O)N1CCOCC1 | 6.7 | 5.2 | – |
| O=C1Nc2cc(NC(=O)c3c[nH]cc(-c4ccc(Cl)cc4)c3=O)ccc2/C1=C/c1ccc[nH]1 | 0.7 | < 0.1 | – |
| O=C1Nc2cc(NC(=O)c3cccn(-c4ccccc4)c3=O)ccc2/C1=C/c1ccc[nH]1 | 5.8 | 4.7 | – |
| O=C1Nc2cc(NC(=O)C3(C(=O)Nc4ccc(F)cc4)CC3)ccc2/C1=C/c1ccc[nH]1 | 1 | 0.9 | IC50 (Aurora kinase B): 0.253 µM |
| O=C1Nc2cccc(NC(=O)c3cccn(-c4ccc(F)cc4)c3=O)c2/C1=C/c1ccc[nH]1 | 4.6 | 4.8 | – |
| COc1ccc(-c2c[nH]cc(C(=O)Nc3ccc4c(c3)NC(=O)/C4=C\c3[nH]c(C)c(C(=O)O)c3C)c2=O)cc1 | > 10 | > 10 | – |
| CCN(CCO)CCCOc1ccc2c(Nc3cc(CC(=O)Nc4cccc(F)c4)[nH]n3)ncnc2c1 [DEFOSBARASERTIB] | 0.1 | 0.1 | IC50 (A549 [4]): 8.3 µM; IC50 (A549 [5]): 5.4 µM |
| O=C1Nc2cc(NC(=O)c3cccn(-c4ccc(C(F)(F)F)cc4)c3=O)ccc2/C1=C/c1ccc[nH]1 | 3.1 | 3.7 | – |
| O=C1Nc2ccc(NC(=O)c3cccn(-c4ccc(F)cc4)c3=O)cc2/C1=C/c1ccc[nH]1 | 5.4 | 5.4 | – |
| O=C1Nc2cc(NC(=O)c3cccn(-c4ccc(Cl)cc4)c3=O)ccc2/C1=C/c1ccc[nH]1 | 6.7 | 4.9 | – |
